# Like-named read-outs stand apart in the source and are kept apart here.
# Legend:
# CLK2 = target: T1, CLK2 (Homo sapiens, UniProt P49760); test: CLK2 kinase activity assay (Z-lyte, Ser/Thr 6 peptide); assay type: biochemical; details: recombinant CLK2 kinase, ATP 60 μM; read-out: EC50
# T1 construct: purchased Thermo Fisher (Life Technologies), Z'-LYTE Kinase Assay Kits
# Experimental: All reactions were performed in duplicate.
# BT-549 = test: CellTiter-Glo Viability Assay, breast cancer; assay type: cell-based; details: Homo sapiens, 96 h; BT-549, breast cancer, four days; read-out: EC50
# CAMA1 = test: CellTiter-Glo Viability Assay, breast cancer; assay type: cell-based; details: Homo sapiens, CAMA-1, 96 h; CAMA1, breast cancer, four days; read-out: EC50
# DU4475 = test: CellTiter-Glo Viability Assay, breast cancer; assay type: cell-based; details: Homo sapiens, DU-4475, 96 h; DU4475, breast cancer, four days; read-out: EC50
# HCC1599 = test: CellTiter-Glo Viability Assay, breast cancer; assay type: cell-based; details: Homo sapiens, 96 h; HCC1599, breast cancer, four days; read-out: EC50
# MCF7 = test: CellTiter-Glo Viability Assay, breast cancer; assay type: cell-based; details: Homo sapiens, 96 h; MCF7, breast cancer, four days; read-out: EC50
# MDA-MB-231-Luc = test: CellTiter-Glo Viability Assay, breast cancer; assay type: cell-based; details: Homo sapiens, 96 h; MDA-MB-231-Luc, breast cancer, four days; read-out: EC50
# T47D = test: CellTiter-Glo Viability Assay, breast cancer; assay type: cell-based; details: Homo sapiens, 96 h, breast cancer, four days, read-out: EC50
# ZR-75-1 = test: CellTiter-Glo Viability Assay, breast cancer; assay type: cell-based; details: Homo sapiens, 96 h; ZR-75-1, breast cancer, four days; read-out: EC50
# all 50 cell lines = test: CellTiter-Glo Viability Assay, average across all cell lines; assay type: cell-based; details: Homo sapiens; across all 50 cell lines; read-out: average EC50 for inhibition of cancer cell proliferation
# In short: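 4-day proliferation, 37° C/5% CO2; 300-3,000 cells/well; compound in duplicate vs DMSO controls. Panel: breast, colorectal, heme/lymphoid, liver, lung, ovarian, pancreatic, prostate lines. Read-out: CellTiter-Glo ATP luminescence, EC50 from dose-response.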
# [1] = test system: colorectal cancer (6 cell lines); test: CellTiter-Glo Viability Assay, colorectal cancer; assay type: cell-based; details: Homo sapiens, inhibition of cancer cell proliferation
# [2] = test system: haematopoietic & lymphoid tumors (13 cell lines); test: CellTiter-Glo Viability Assay, haematopoietic & lymphoid tumors; assay type: cell-based; details: Homo sapiens, inhibition of cancer cell proliferation
# [3] = test system: liver cancer (3 cell lines); test: CellTiter-Glo Viability Assay, liver cancer; assay type: cell-based; details: Homo sapiens, inhibition of cancer cell proliferation
# [4] = test system: lung cancer (4 cell lines); test: CellTiter-Glo Viability Assay, lung cancer; assay type: cell-based; details: Homo sapiens, inhibition of cancer cell proliferation
# [5] = test system: ovarian cancer (4 cell lines); test: CellTiter-Glo Viability Assay, ovarian cancer; assay type: cell-based; details: Homo sapiens, inhibition of cancer cell proliferation
# [6] = test system: pancreatic cancer (8 cell lines); test: CellTiter-Glo Viability Assay, pancreatic cancer; assay type: cell-based; details: Homo sapiens, inhibition of cancer cell proliferation
# [7] = test system: prostate cancer (5 cell lines); test: CellTiter-Glo Viability Assay, prostate cancer; assay type: cell-based; details: Homo sapiens
# CLK3 = CLK3 (Homo sapiens, UniProt P49761); test: CLK3 kinase activity assay (Z-lyte, Ser/Thr 18 peptide)
# [8] = HCT-116, HCT116 cell line, read-out: Colorectal cancer, EC50 (μM) HCT116
# [9] = HT-29, HT29 cell line, read-out: Colorectal cancer, EC50 (μM) HT29
# [10] = SW-620, SW620 cell line, read-out: Colorectal cancer, EC50 (μM) SW620
# [11] = DLD-1 cell line, read-out: Colorectal cancer, EC50 (μM) DLD-1
# [12] = SW48 cell line, read-out: Colorectal cancer, EC50 (μM) SW48
# [13] = SW480 cell line, read-out: Colorectal cancer, EC50 (μM) SW480
# [14] = DND41, DND-41 cell line, read-out: Haematopoietic & Lymphoid tumors, EC50 (μM) DND-41
# [15] = MV4-11, MV-4-11 cell line, read-out: Haematopoietic & Lymphoid tumors, EC50 (μM) MV-4-11
# [16] = Rec1, REC-1 cell line, read-out: Haematopoietic & Lymphoid tumors, EC50 (μM) REC-1
# [17] = SU-DHL-4, SUDHL4 cell line, read-out: Haematopoietic & Lymphoid tumors, EC50 (μM) SUDHL4
# [18] = HL-60 cell line, read-out: Haematopoietic & Lymphoid tumors, EC50 (μM) HL-60
# [19] = JM1 cell line, read-out: Haematopoietic & Lymphoid tumors, EC50 (μM) JM1
# [20] = JURKAT, Clone E6-1 cell line, read-out: Haematopoietic & Lymphoid tumors, EC50 (μM) JURKAT, Clone E6-1
# [21] = JeKo-1 cell line, read-out: Haematopoietic & Lymphoid tumors, EC50 (μM) JeKo-1
# [22] = KASUMI-1 cell line, read-out: Haematopoietic & Lymphoid tumors, EC50 (μM) KASUMI-1
# [23] = Loucy cell line, read-out: Haematopoietic & Lymphoid tumors, EC50 (μM) Loucy
# [24] = MOLT-4 cell line, read-out: Haematopoietic & Lymphoid tumors, EC50 (μM) MOLT-4
# [25] = TF-1 cell line, read-out: Haematopoietic & Lymphoid tumors, EC50 (μM) TF-1
# [26] = TOLEDO cell line, read-out: Haematopoietic & Lymphoid tumors, EC50 (μM) TOLEDO
# [27] = SNU-398, SNU398 cell line, read-out: Liver cancer, EC50 SNU398
# [28] = HEPG2 cell line, read-out: Liver cancer, EC50 HEPG2
# [29] = PLC/PRF/5 cell line, read-out: Liver cancer, EC50 PLC/PRF/5
# [30] = A-427, A427 cell line, read-out: Lung cancer, EC50 (μM) A427
# [31] = HCC78, HCC-78 cell line, read-out: Lung cancer, EC50 (μM) HCC-78
# [32] = NCI-H460 cell line, read-out: Lung cancer, EC50 (μM) NCI-H460
# [33] = NCI-H522 cell line, read-out: Lung cancer, EC50 (μM) NCI-H522
# [34] = PA-1, PA1 cell line, read-out: Ovarian cancer, EC50 (μM) PA1
# [35] = TOV112D, TOV-112D cell line, read-out: Ovarian cancer, EC50 (μM) TOV-112D
# [36] = OV-90 cell line, read-out: Ovarian cancer, EC50 (μM) OV-90
# [37] = OVCAR-3 cell line, read-out: Ovarian cancer, EC50 (μM) OVCAR-3
# [38] = BXPC-3, BxPC3 cell line, read-out: Pancreatic cancer, EC50 BxPC3
# [39] = CAPAN-1, Capan1 cell line, read-out: Pancreatic cancer, EC50 Capan1
# [40] = Capan-2, Capan2 cell line, read-out: Pancreatic cancer, EC50 Capan2
# [41] = MIA PaCa-2 cell line, read-out: Pancreatic cancer, EC50 MIA PaCa-2
# [42] = PANC 05.04 cell line, read-out: Pancreatic cancer, EC50 PANC 05.04
# [43] = PANC-1 cell line, read-out: Pancreatic cancer, EC50 PANC-1
# [44] = UPAFII cell line, read-out: Pancreatic cancer, EC50 UPAFII
# [45] = DU-145, read-out: Prostate cancer EC50 Du-145
# [46] = PC-3, PC3 cell line, inhibition of cancer cell proliferation, read-out: Prostate cancer EC50 PC3
# [47] = 22Rv1 cell line, inhibition of cancer cell proliferation, read-out: Prostate cancer EC50 22Rv1
# [48] = LNCap clone FGC cell line, inhibition of cancer cell proliferation, read-out: Prostate cancer EC50 LNCap clone FGC
# [49] = VCaP (Sigma) cell line, inhibition of cancer cell proliferation, read-out: Prostate cancer EC50 VCaP (Sigma)
# T1 sequence (P49760 whole entry): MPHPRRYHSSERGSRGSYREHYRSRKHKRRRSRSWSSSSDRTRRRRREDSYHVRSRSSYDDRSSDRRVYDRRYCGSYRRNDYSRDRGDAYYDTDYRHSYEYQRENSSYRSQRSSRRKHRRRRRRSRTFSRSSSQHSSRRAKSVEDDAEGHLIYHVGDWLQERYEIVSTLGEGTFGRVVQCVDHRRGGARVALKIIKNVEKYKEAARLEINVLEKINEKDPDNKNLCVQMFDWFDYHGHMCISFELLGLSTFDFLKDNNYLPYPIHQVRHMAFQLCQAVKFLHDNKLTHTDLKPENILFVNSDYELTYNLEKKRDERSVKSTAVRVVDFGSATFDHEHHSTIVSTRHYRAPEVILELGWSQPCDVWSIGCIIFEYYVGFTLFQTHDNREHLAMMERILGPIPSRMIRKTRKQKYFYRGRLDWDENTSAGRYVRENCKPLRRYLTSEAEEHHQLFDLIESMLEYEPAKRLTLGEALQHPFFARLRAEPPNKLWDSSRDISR
# CLK3, sequence (P49761 whole entry): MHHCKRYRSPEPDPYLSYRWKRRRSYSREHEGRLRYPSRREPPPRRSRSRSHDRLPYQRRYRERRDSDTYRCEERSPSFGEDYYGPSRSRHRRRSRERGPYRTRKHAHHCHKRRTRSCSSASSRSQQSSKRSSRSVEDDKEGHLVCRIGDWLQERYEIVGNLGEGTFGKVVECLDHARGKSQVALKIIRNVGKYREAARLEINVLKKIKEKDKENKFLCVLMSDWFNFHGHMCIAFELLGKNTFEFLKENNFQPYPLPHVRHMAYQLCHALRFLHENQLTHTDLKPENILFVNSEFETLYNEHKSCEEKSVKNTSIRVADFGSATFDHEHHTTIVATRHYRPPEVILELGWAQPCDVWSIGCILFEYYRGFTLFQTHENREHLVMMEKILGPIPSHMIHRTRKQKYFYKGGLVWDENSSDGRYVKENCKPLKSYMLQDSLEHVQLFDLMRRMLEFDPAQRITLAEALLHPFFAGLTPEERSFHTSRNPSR
smiles,measurement,setting,value
Cn1ncc(-c2ccc3cnc(NC(=O)C4CC5(C4)CN(CCF)C5)cc3c2)c1CN1CCCCC1 [Compound 77],EC50,CLK2,5.8 nM
same,EC50,BT-549,549 nM
same,EC50,CAMA1,1850 nM
same,EC50,DU4475,452 nM
same,EC50,HCC1599,606 nM
same,EC50,MCF7,1.28 µM
same,EC50,MDA-MB-231-Luc,890 nM
same,EC50,T47D,1020 nM
same,EC50,ZR-75-1,826 nM
same,EC50,all 50 cell lines,684 nM
same,EC50,[1]; [8],0.294 µM
same,EC50,[1]; [9],0.537 µM
same,EC50,[1]; [10],0.187 µM
same,EC50,[1]; [11],0.229 µM
same,EC50,[1]; [12],0.12 µM
same,EC50,[1]; [13],0.383 µM
same,EC50,[2]; [14],0.854 µM
same,EC50,[2]; [15],0.069 µM
same,EC50,[2]; [16],0.361 µM
same,EC50,[2]; [17],0.424 µM
same,EC50,[2]; [18],1.78 µM
same,EC50,[2]; [19],0.375 µM
same,EC50,[2]; [20],0.699 µM
same,EC50,[2]; [21],0.469 µM
same,EC50,[2]; [22],0.197 µM
same,EC50,[2]; [23],0.368 µM
same,EC50,[2]; [24],1.22 µM
same,EC50,[2]; [25],0.944 µM
same,EC50,[2]; [26],0.584 µM
same,EC50,[3]; [27],339 nM
same,EC50,[3]; [28],766 nM
same,EC50,[3]; [29],2190 nM
same,EC50,[4]; [30],0.973 µM
same,EC50,[4]; [31],1.28 µM
same,EC50,[4]; [32],0.649 µM
same,EC50,[4]; [33],0.312 µM
same,EC50,[5]; [34],0.71 µM
same,EC50,[5]; [35],0.457 µM
same,EC50,[5]; [36],0.806 µM
same,EC50,[5]; [37],0.204 µM
same,EC50,[6]; [38],422 nM
same,EC50,[6]; [39],673 nM
same,EC50,[6]; [40],495 nM
same,EC50,[6]; [41],318 nM
same,EC50,[6]; [42],635 nM
same,EC50,[6]; [43],659 nM
same,EC50,[6]; [44],660 nM
same,EC50,[7]; [45],734 nM
same,EC50,[7]; [46],901 nM
same,EC50,[7]; [47],814 nM
same,EC50,[7]; [48],432 nM
same,EC50,[7]; [49],1220 nM
same,EC50,CLK3,50 nM
CN(C)C1CCN(c2cc(C(=O)Nc3ncc4ccc(-c5cn(C)nn5)cc4n3)ccn2)CC1 [Compound 80],EC50,CLK2,8.9 nM
same,EC50,BT-549,4500 nM
same,EC50,CAMA1,3090 nM
same,EC50,DU4475,3220 nM
same,EC50,HCC1599,2190 nM
same,EC50,MCF7,6.64 µM
same,EC50,MDA-MB-231-Luc,4060 nM
same,EC50,T47D,4620 nM
same,EC50,ZR-75-1,4030 nM
same,EC50,all 50 cell lines,4070 nM
same,EC50,[1]; [8],2.06 µM
same,EC50,[1]; [9],6.22 µM
same,EC50,[1]; [10],1.4 µM
same,EC50,[1]; [11],7.22 µM
same,EC50,[1]; [12],0.926 µM
same,EC50,[1]; [13],1.51 µM
same,EC50,[2]; [14],2.11 µM
same,EC50,[2]; [15],0.879 µM
same,EC50,[2]; [16],2.45 µM
same,EC50,[2]; [17],2.27 µM
same,EC50,[2]; [18],3.25 µM
same,EC50,[2]; [19],1.19 µM
same,EC50,[2]; [20],4.05 µM
same,EC50,[2]; [21],0.731 µM
same,EC50,[2]; [22],3.05 µM
same,EC50,[2]; [23],1.6 µM
same,EC50,[2]; [24],3.61 µM
same,EC50,[2]; [25],> 10 µM
same,EC50,[2]; [26],2.8 µM
same,EC50,[3]; [27],631 nM
same,EC50,[3]; [28],3680 nM
same,EC50,[3]; [29],> 10000 nM
same,EC50,[4]; [30],2.81 µM
same,EC50,[4]; [31],5.46 µM
same,EC50,[4]; [32],> 10 µM
same,EC50,[4]; [33],1.59 µM
same,EC50,[5]; [34],3.18 µM
same,EC50,[5]; [35],1.97 µM
same,EC50,[5]; [36],5.6 µM
same,EC50,[5]; [37],1.41 µM
same,EC50,[6]; [38],9580 nM
same,EC50,[6]; [39],3720 nM
same,EC50,[6]; [40],7500 nM
same,EC50,[6]; [41],1110 nM
same,EC50,[6]; [42],5110 nM
same,EC50,[6]; [43],8910 nM
same,EC50,[6]; [44],3510 nM
same,EC50,[7]; [45],5780 nM
same,EC50,[7]; [46],3980 nM
same,EC50,[7]; [47],2850 nM
same,EC50,[7]; [48],9120 nM
same,EC50,[7]; [49],6020 nM
same,EC50,CLK3,38.6 nM
